Experimental data from PubChem BioAssay (NCI).
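The compound was tested at five concentrations on cells cultured in 96-well plates, with a 48-hour exposure period. TGI marks complete inhibition of growth.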

How the values were obtained:
Assay in all cases: NCI-60 cell line screen, 48 h
[1] = tested on: 786-0 renal
[2] = tested on: A498 renal
[3] = tested on: A549 NSCLC
[4] = tested on: ACHN renal
[5] = tested on: BT-549 breast
[6] = tested on: CAKI-1 renal
[7] = tested on: CCRF-CEM leukemia
[8] = tested on: COLO 205 colon
[9] = tested on: DU-145 prostate
[10] = tested on: EKVX NSCLC
[11] = tested on: HCC-2998 colon
[12] = tested on: HCT-116 colon
[13] = tested on: HCT-15 colon
[14] = tested on: HOP-62 NSCLC
[15] = tested on: HOP-92 NSCLC
[16] = tested on: HS 578T breast
[17] = tested on: HT29 colon
[18] = tested on: IGROV1 ovarian
[19] = tested on: KM12 colon
[20] = tested on: LOX IMVI melanoma
[21] = tested on: M14 melanoma
[22] = tested on: MDA-MB-231 breast
[23] = tested on: MDA-MB-435
[24] = tested on: MDA-N
[25] = tested on: MOLT-4 leukemia
[26] = tested on: NCI-H226 lung
[27] = tested on: NCI-H23 lung
[28] = tested on: NCI-H460 lung
[29] = tested on: NCI-H522 lung
[30] = tested on: NCI/ADR-RES ovarian
[31] = tested on: OVCAR-4 ovarian
[32] = tested on: OVCAR-5 ovarian
[33] = tested on: OVCAR-8 ovarian
[34] = tested on: PC-3 prostate
[35] = tested on: RPMI-8226 leukemia
[36] = tested on: RXF 393 renal
[37] = tested on: SF-268 CNS
[38] = tested on: SF-295 CNS
[39] = tested on: SF-539 CNS
[40] = tested on: SK-MEL-2 melanoma
[41] = tested on: SK-MEL-28 melanoma
[42] = tested on: SK-MEL-5 melanoma
[43] = tested on: SK-OV-3 ovarian
[44] = tested on: SN12C renal
[45] = tested on: SNB-19 CNS
[46] = tested on: SR leukemia
[47] = tested on: SW-620 colon
[48] = tested on: T-47D breast
[49] = tested on: TK-10 renal
[50] = tested on: U251 CNS
[51] = tested on: UACC-257 melanoma
[52] = tested on: UACC-62 melanoma
[53] = tested on: UO-31 renal
[54] = tested on: HL-60(TB) leukemia
[55] = tested on: K-562 leukemia
[56] = tested on: MALME-3M melanoma
[57] = tested on: MCF7 breast
[58] = tested on: OVCAR-3 ovarian
[59] = tested on: SNB-75 CNS

For `C/C(=N\Nc1nc2ccccc2o1)c1ncccn1`, the TGI [1] was 12.1 µM, the TGI [2] was 15.8 µM and the TGI [3] was 12.1 µM. The TGI [4] was 11.3 µM, the TGI [5] was 34.8 µM and the TGI [6] was 1570 nM. For the same compound, the TGI [7] was 58.4 nM, the TGI [8] was 15.8 µM and the TGI [9] was greater than 50.8 µM. For the same compound, the TGI [10] was 14.1 µM, the TGI [11] was 20.7 µM and the TGI [12] was 17 µM. It also gave a TGI [13] of 20.3 µM, a TGI [14] of 2910 nM and a TGI [15] of 16.6 µM. For the same compound, the TGI [16] was greater than 61 µM, the TGI [17] was 45.4 µM and the TGI [18] was 1160 nM. For the same compound, the TGI [19] was 30.2 µM, the TGI [20] was 199 nM and the TGI [21] was 295 nM. The TGI [22] was 21.5 µM, the TGI [23] was 23.4 µM and the TGI [24] was greater than 54.5 µM. It also gave a TGI [25] of 28.2 nM, a TGI [26] of 640 nM and a TGI [27] of 5.87 µM. The TGI [28] was 14 µM, the TGI [29] was 22.3 µM and the TGI [30] was less than 0.0335 µM. For the same compound, the TGI [31] was 10.2 µM, the TGI [32] was 19.6 µM and the TGI [33] was 404 nM. For the same compound, the TGI [34] was 19.9 µM, the TGI [35] was 36.3 nM and the TGI [36] was 5.59 µM. The TGI [37] was greater than 72.2 µM, the TGI [38] was 6.06 µM and the TGI [39] was 1030 nM. It also gave a TGI [40] of 13.6 µM, a TGI [41] of 28.6 µM and a TGI [42] of 13.9 µM. It also gave a TGI [43] of 10 µM, a TGI [44] of 15.2 µM and a TGI [45] greater than 100 µM. For the same compound, the TGI [46] was 228 nM, the TGI [47] was 28.3 µM and the TGI [48] was 28.5 µM. The TGI [49] was 18.2 µM, the TGI [50] was 14.8 µM and the TGI [51] was 15.6 µM. It also gave a TGI [52] of 449 nM and a TGI [53] of 609 nM.
For `O=C(NC(=O)c1ccccc1)OC(c1ccccc1)C1CO1` (centres undefined), the TGI [1] was greater than 100 µM, the TGI [3] was greater than 100 µM and the TGI [4] was greater than 100 µM. For the same compound, the TGI [5] was greater than 100 µM, the TGI [6] was greater than 100000 nM and the TGI [7] was greater than 100000 nM. The TGI [8] was greater than 100 µM, the TGI [9] was greater than 100 µM and the TGI [10] was greater than 100 µM. The TGI [11] was greater than 100 µM, the TGI [12] was greater than 100 µM and the TGI [13] was greater than 100 µM. It also gave a TGI [54] greater than 100 µM, a TGI [14] greater than 100000 nM and a TGI [16] greater than 100 µM. It also gave a TGI [17] greater than 100 µM, a TGI [18] greater than 100000 nM and a TGI [55] greater than 100 µM. The TGI [19] was greater than 100 µM, the TGI [20] was greater than 100000 nM and the TGI [21] was greater than 100000 nM. It also gave a TGI [56] greater than 100 µM, a TGI [57] greater than 100 µM and a TGI [22] greater than 100 µM. It also gave a TGI [23] greater than 100 µM, a TGI [24] greater than 100 µM and a TGI [25] greater than 100000 nM. It also gave a TGI [26] greater than 100000 nM, a TGI [27] greater than 100 µM and a TGI [28] greater than 100 µM. The TGI [29] was greater than 100 µM, the TGI [30] was greater than 100 µM and the TGI [58] was greater than 100 µM. For the same compound, the TGI [31] was greater than 100 µM, the TGI [32] was greater than 100 µM and the TGI [33] was greater than 100000 nM. The TGI [34] was greater than 100 µM, the TGI [35] was greater than 100000 nM and the TGI [36] was greater than 100 µM. It also gave a TGI [37] greater than 100 µM, a TGI [38] greater than 100 µM and a TGI [39] greater than 100000 nM. For the same compound, the TGI [40] was greater than 100 µM, the TGI [41] was greater than 100 µM and the TGI [42] was greater than 100 µM. It also gave a TGI [43] greater than 100 µM, a TGI [44] greater than 100 µM and a TGI [45] greater than 100 µM. For the same compound, the TGI [59] was greater than 100 µM, the TGI [47] was greater than 100 µM and the TGI [48] was greater than 100 µM. For the same compound, the TGI [49] was greater than 100 µM, the TGI [50] was greater than 100 µM and the TGI [51] was greater than 100 µM. For the same compound, the TGI [52] was greater than 100000 nM and the TGI [53] was greater than 100000 nM.
